Experimental data: patent US20180185440A1, “PHARMACEUTICAL COMPOSITIONS AND METHODS FOR DELIVERY OF BREMELANOTIDE” (NOVEN PHARMACEUTICALS, INC., priority 2016, published 2018)

Test: in vivo delivery of bremelanotide by oral capsules (rats)
Set-up: species or system rat
Settings: oral capsules with patches, FIG. 8
Method: The capsules of Examples 4-15 and Control 2, described above, were tested in vivo in a rat model. Capsules were administered by oral gavage administration using a dosing tool, followed by administration of 0.3 mL of water. Blood samples were drawn until 5 hours after administration and assayed for bremelanotide concentration as a function of time. FIGS. 5-8 illustrate the blood levels (pg/ml) of bremelanotide achieved (reported as the average from n=2 or 3 rats per formulation tested). […] The results illustrated in FIGS. 6 and 7 indicate that increasing the relative amount of penetration enhancer results in increased bremelanotide delivery.

CCCCCCCCCCCCO[C@@H]1O[C@H](CO)[C@@H](O[C@H]2O[C@H](CO)[C@@H](O)[C@H](O)[C@H]2O)[C@H](O)[C@H]1O [n-DMS, n-dodecyl-β-D-maltoside]
enhancer effect for bremelanotide through the GI tract: effective enhancers
